Data from patent US10766893B2 (priority 2017, dated 2020).
pIC50: −log10 of the molar value.

What was measured:
Experiment in all cases: biochemical
Assay type in all cases: biochemical
Details in all cases: 15 nM tritium labelled cAMP, 1 hr at room temperature
PDE1A = PDE1A (Homo sapiens (Human), UniProt P54750)
Text: (§1) Table 1 lists the IC50 value for inhibition of PDE1 by the compounds of the invention. […] PDE1 assays are described in the Experimental Section.

PDE1B = PDE1B (Homo sapiens (Human), UniProt Q01064)
PDE1B, sequence (Q01064 whole entry): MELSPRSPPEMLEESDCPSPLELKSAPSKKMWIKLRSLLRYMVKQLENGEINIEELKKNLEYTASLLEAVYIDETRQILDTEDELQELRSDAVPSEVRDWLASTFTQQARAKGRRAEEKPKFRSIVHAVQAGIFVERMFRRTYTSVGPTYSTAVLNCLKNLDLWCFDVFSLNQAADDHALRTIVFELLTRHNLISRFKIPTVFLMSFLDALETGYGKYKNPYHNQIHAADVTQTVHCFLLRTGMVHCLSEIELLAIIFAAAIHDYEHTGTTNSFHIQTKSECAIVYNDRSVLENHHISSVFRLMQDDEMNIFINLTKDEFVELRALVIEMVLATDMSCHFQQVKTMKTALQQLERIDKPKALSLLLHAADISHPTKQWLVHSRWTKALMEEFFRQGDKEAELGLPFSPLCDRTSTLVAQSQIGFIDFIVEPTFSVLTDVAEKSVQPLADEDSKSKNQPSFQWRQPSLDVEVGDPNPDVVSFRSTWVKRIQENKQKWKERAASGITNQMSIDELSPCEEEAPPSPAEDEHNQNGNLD
Text: as §1

PDE1C = PDE1C (Homo sapiens (Human), UniProt Q14123)
PDE1C, sequence (Q14123 whole entry): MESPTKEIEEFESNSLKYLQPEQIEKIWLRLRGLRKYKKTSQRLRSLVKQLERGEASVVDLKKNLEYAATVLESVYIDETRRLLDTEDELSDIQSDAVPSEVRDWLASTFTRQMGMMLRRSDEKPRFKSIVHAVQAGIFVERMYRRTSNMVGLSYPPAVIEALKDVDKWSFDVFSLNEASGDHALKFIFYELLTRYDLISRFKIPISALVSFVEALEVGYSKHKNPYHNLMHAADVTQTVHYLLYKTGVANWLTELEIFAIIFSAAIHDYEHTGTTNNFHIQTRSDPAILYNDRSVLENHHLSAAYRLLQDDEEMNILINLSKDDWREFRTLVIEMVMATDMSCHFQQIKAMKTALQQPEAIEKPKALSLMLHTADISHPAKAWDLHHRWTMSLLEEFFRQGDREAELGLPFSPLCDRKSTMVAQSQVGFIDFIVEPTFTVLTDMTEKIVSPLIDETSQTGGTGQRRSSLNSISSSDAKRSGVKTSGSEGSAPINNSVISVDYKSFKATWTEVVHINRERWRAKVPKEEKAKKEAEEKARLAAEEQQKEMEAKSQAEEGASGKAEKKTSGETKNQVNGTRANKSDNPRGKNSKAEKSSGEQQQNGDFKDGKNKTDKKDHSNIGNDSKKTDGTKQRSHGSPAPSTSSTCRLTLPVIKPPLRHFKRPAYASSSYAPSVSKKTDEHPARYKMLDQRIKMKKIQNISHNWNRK
Text: as §1

PDE1A, sequence (P54750 whole entry): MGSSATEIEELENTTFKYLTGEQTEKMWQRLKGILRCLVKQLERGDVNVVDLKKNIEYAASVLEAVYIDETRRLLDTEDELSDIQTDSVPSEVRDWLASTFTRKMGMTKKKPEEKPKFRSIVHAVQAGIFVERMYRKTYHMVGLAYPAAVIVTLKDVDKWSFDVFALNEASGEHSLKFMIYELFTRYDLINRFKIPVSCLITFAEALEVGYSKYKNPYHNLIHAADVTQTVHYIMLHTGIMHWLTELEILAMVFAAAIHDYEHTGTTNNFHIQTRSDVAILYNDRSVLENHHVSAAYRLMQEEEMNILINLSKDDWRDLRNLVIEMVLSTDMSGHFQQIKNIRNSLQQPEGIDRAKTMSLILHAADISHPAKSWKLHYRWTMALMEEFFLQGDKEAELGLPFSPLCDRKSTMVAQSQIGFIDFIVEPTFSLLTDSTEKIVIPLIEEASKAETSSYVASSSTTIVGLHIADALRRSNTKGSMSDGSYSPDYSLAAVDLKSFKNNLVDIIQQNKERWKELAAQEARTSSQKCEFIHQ

CCOc1cnccc1-c1cc(NCc2ccn(C)n2)c2c(n1)c(C)nn2C(C)C [Example 27b, 5-(3-ethoxy-4-pyridyl)-1-isopropyl-3-methyl-N-[(1-methylpyrazol-3-yl)methyl]pyrazolo[4,3-b]pyridin-7-amine]
pIC50 (PDE1A): 7.77
pIC50 (PDE1B): 8.80
pIC50 (PDE1C): 7.38

CCOc1ncccc1-c1cc(NCc2nccc3nncn23)c2c(n1)c(C)nn2C(C)C [Example 15a, N-([1,2,4]triazolo[4,3-c]pyrimidin-5-ylmethyl)-5-(2-ethoxypyridin-3-yl)-1-isopropyl-3-methyl-1H-pyrazolo[4,3-b]pyridin-7-amine]
pIC50 (PDE1A): 7.52
pIC50 (PDE1B): 8.32
pIC50 (PDE1C): 7.37

CCOc1nnccc1-c1cc(NCc2ccccn2)c2c(n1)c(C)nn2C(C)C [Example 14b, 5-(3-ethoxypyridazin-4-yl)-1-isopropyl-3-methyl-N-(2-pyridylmethyl)pyrazolo[4,3-b]pyridin-7-amine]
pIC50 (PDE1B): 8.96
pIC50 (PDE1C): 7.28

CCOc1ncccc1-c1cc(NCc2cccc3ncoc23)c2c(n1)c(C)nn2C(C)C [Example 9a, N-(1,3-benzoxazol-7-ylmethyl)-5-(2-ethoxy-3-pyridyl)-1-isopropyl-3-methyl-pyrazolo[4,3-b]pyridin-7-amine]
pIC50 (PDE1A): 7.35
pIC50 (PDE1B): 8.28
pIC50 (PDE1C): 7.09

CCOc1cnccc1-c1cc(NCc2cnn(C)c2)c2c(n1)c(C)nn2C(C)CC (single isomer, unassigned) [Example 32b, 5-(3-ethoxy-4-pyridyl)-3-methyl-N-[(1-methylpyrazol-4-yl)methyl]-1-[1-methylpropyl]pyrazolo[4,3-b]pyridin-7-amine]
pIC50 (PDE1A): 7.24
pIC50 (PDE1B): 8.11
pIC50 (PDE1C): 6.74

COc1cnccc1-c1cc(NCc2cnn(C)c2)c2c(n1)c(C)nn2C(C)C [Example 29b, 1-isopropyl-5-(3-methoxy-4-pyridyl)-3-methyl-N-[(1-methylpyrazol-4-yl)methyl]pyrazolo[4,3-b]pyridin-7-amine]
pIC50 (PDE1A): 7.49
pIC50 (PDE1B): 8.31
pIC50 (PDE1C): 7.36

CCOc1nnccc1-c1cc(NCc2cnn(C)c2)c2c(n1)c(C)nn2C(C)C [Example 3b, 5-(3-ethoxypyridazin-4-yl)-1-isopropyl-3-methyl-N-[(1-methylpyrazol-4-yl)methyl]pyrazolo[4,3-b]pyridin-7-amine]
pIC50 (PDE1A): 8.21
pIC50 (PDE1B): 8.96
pIC50 (PDE1C): 7.57

CCOc1cnccc1-c1cc(NCc2cccc(F)n2)c2c(n1)c(C)nn2C(C)C [Example 12b, 5-(3-ethoxy-4-pyridyl)-N-[(6-fluoro-2-pyridyl)methyl]-1-isopropyl-3-methyl-pyrazolo[4,3-b]pyridin-7-amine]
pIC50 (PDE1A): 7.66
pIC50 (PDE1B): 8.96
pIC50 (PDE1C): 7.21

CCCOc1cnccc1-c1cc(NCc2cnn(C)c2)c2c(n1)c(C)nn2C(C)C [Example 31b, 1-isopropyl-3-methyl-N-[(1-methylpyrazol-4-yl)methyl]-5-(3-propoxy-4-pyridyl)pyrazolo[4,3-b]pyridin-7-amine]
pIC50 (PDE1A): 8.34
pIC50 (PDE1B): 9.42
pIC50 (PDE1C): 7.74

CCOc1nnccc1-c1cc(NCc2cccc(F)n2)c2c(n1)c(C)nn2C(C)C [Example 26b, 5-(3-ethoxypyridazin-4-yl)-N-[(6-fluoro-2-pyridyl)methyl]-1-isopropyl-3-methyl-pyrazolo[4,3-b]pyridin-7-amine]
pIC50 (PDE1A): 8.19
pIC50 (PDE1C): 7.36

CCOc1ncccc1-c1cc(NCc2cccc3ncnn23)c2c(n1)c(C)nn2C(C)C [Example 6a, 5-(2-ethoxy-3-pyridyl)-1-isopropyl-3-methyl-N-([1,2,4]triazolo[1,5-a]pyridin-5-ylmethyl)pyrazolo[4,3-b]pyridin-7-amine]
pIC50 (PDE1A): 7.74
pIC50 (PDE1B): 8.85
pIC50 (PDE1C): 7.19

CCOc1nnccc1-c1cc(NCc2cnn(C)c2)c2c(n1)c(C)nn2C(C)CC (single isomer, unassigned) [Example 6b, 5-(3-ethoxypyridazin-4-yl)-3-methyl-N-[(1-methylpyrazol-4-yl)methyl]-1-[1-methylpropyl]pyrazolo[4,3-b]pyridin-7-amine]
pIC50 (PDE1A): 8.72
pIC50 (PDE1B): 9.44
pIC50 (PDE1C): 7.96

COc1nnccc1-c1cc(NCc2cnn(C)c2)c2c(n1)c(C)nn2C(C)C [Example 2b, 1-isopropyl-5-(3-methoxypyridazin-4-yl)-3-methyl-N-[(1-methylpyrazol-4-yl)methyl]pyrazolo[4,3-b]pyridin-7-amine]
pIC50 (PDE1A): 7.35
pIC50 (PDE1B): 8.09
pIC50 (PDE1C): 7.31

Cc1nn(C(C)C)c2c(NCc3cnn(C)c3)cc(-c3cccc4ncoc34)nc12 [Example 37b, 5-(1,3-benzoxazol-7-yl)-1-isopropyl-3-methyl-N-[(1-methylpyrazol-4-yl)methyl]pyrazolo[4,3-b]pyridin-7-amine]
pIC50 (PDE1A): 7.80
pIC50 (PDE1B): 8.62
pIC50 (PDE1C): 7.85

CCOc1nnccc1-c1cc(NCc2cccnc2OC)c2c(n1)c(C)nn2C(C)C [Example 7b, 5-(3-ethoxypyridazin-4-yl)-1-isopropyl-N-[(2-methoxy-3-pyridyl)methyl]-3-methyl-pyrazolo[4,3-b]pyridin-7-amine]
pIC50 (PDE1A): 7.96
pIC50 (PDE1B): 8.77

CCOc1cnccc1-c1cc(NCc2cccnc2F)c2c(n1)c(C)nn2C(C)C [Example 17b, 5-(3-ethoxy-4-pyridyl)-N-[(2-fluoro-3-pyridyl)methyl]-1-isopropyl-3-methyl-pyrazolo[4,3-b]pyridin-7-amine]
pIC50 (PDE1A): 7.70
pIC50 (PDE1B): 8.62
pIC50 (PDE1C): 7.43

CCOc1nnccc1-c1cc(NCc2nccc(C)n2)c2c(n1)c(C)nn2C(C)C [Example 11b, 5-(3-ethoxypyridazin-4-yl)-1-isopropyl-3-methyl-N-[(4-methylpyrimidin-2-yl)methyl]pyrazolo[4,3-b]pyridin-7-amine]
pIC50 (PDE1A): 7.42
pIC50 (PDE1B): 8.36
pIC50 (PDE1C): 6.80

CCOc1cnccc1-c1cc(NCc2cccc(OC)n2)c2c(n1)c(C)nn2C(C)C [Example 25b, 5-(3-ethoxy-4-pyridyl)-1-isopropyl-N-[(6-methoxy-2-pyridyl)methyl]-3-methyl-pyrazolo[4,3-b]pyridin-7-amine]
pIC50 (PDE1A): 7.77
pIC50 (PDE1B): 8.80
pIC50 (PDE1C): 7.28

CCOc1nnccc1-c1cc(NCc2cc(C)[nH]n2)c2c(n1)c(C)nn2C(C)C [Example 22b, 5-(3-ethoxypyridazin-4-yl)-1-isopropyl-3-methyl-N-[(5-methyl-1H-pyrazol-3-yl)methyl]pyrazolo[4,3-b]pyridin-7-amine]
pIC50 (PDE1B): 9.40
pIC50 (PDE1C): 7.82

Cc1nn(C(C)C)c2c(NCc3cnn(C)c3)cc(-c3cccc4cc[nH]c34)nc12 [Example 38b, 5-(1H-indol-7-yl)-1-isopropyl-3-methyl-N-[(1-methylpyrazol-4-yl)methyl]pyrazolo[4,3-b]pyridin-7-amine]
pIC50 (PDE1A): 6.23
pIC50 (PDE1B): 7.00
pIC50 (PDE1C): 6.46

CCOc1ncccc1-c1cc(NCc2cccc3nc(C)nn23)c2c(n1)c(C)nn2C(C)C [Example 7a, 5-(2-ethoxy-3-pyridyl)-1-isopropyl-3-methyl-N-[(2-methyl-[1,2,4]triazolo[1,5-a]pyridin-5-yl)methyl]pyrazolo[4,3-b]pyridin-7-amine]
pIC50 (PDE1A): 7.96
pIC50 (PDE1B): 9.03
pIC50 (PDE1C): 7.46

CCOc1nnccc1-c1cc(NCc2cccc(OC)n2)c2c(n1)c(C)nn2C(C)C [Example 24b, 5-(3-ethoxypyridazin-4-yl)-1-isopropyl-N-[(6-methoxy-2-pyridyl)methyl]-3-methyl-pyrazolo[4,3-b]pyridin-7-amine]
pIC50 (PDE1B): 8.85
pIC50 (PDE1C): 7.15

CCOc1ncccc1-c1cc(NCc2cccn3cnnc23)c2c(n1)c(C)nn2C(C)C [Example 3a, 5-(2-ethoxy-3-pyridyl)-1-isopropyl-3-methyl-N-([1,2,4]triazolo[4,3-c]pyridin-8-ylmethyl)pyrazolo[4,3-b]pyridin-7-amine]
pIC50 (PDE1A): 8.33
pIC50 (PDE1B): 9.49

Cc1nc2cccc(-c3cc(NCc4cnn(C)c4)c4c(n3)c(C)nn4C(C)C)c2o1 [Example 36b, 1-isopropyl-3-methyl-5-(2-methyl-1,3-benzoxazol-7-yl)-N-[(1-methylpyrazol-4-yl)methyl]pyrazolo[4,3-b]pyridin-7-amine]
pIC50 (PDE1A): 7.85
pIC50 (PDE1B): 8.62
pIC50 (PDE1C): 7.55

CCOc1cnccc1-c1cc(NCc2nnc(C)o2)c2c(n1)c(C)nn2C(C)C [Example 34b, 5-(3-ethoxy-4-pyridyl)-1-isopropyl-3-methyl-N-[(5-methyl-1,3,4-oxadiazol-2-yl)methyl]pyrazolo[4,3-b]pyridin-7-amine]
pIC50 (PDE1A): 7.31
pIC50 (PDE1B): 8.15
pIC50 (PDE1C): 6.89

CCOc1cnccc1-c1cc(NCc2cnn(C)c2)c2c(n1)c(C)nn2C(C)C [Example 28b, 5-(3-ethoxy-4-pyridyl)-1-isopropyl-3-methyl-N-[(1-methylpyrazol-4-yl)methyl]pyrazolo[4,3-b]pyridin-7-amine]
pIC50 (PDE1B): 8.68
pIC50 (PDE1C): 7.48

CCOc1nnccc1-c1cc(NCc2cnn(C)c2)c2c(n1)c(C)nn2C(C)CC (single isomer, unassigned) [Example 5b, 5-(3-ethoxypyridazin-4-yl)-3-methyl-N-[(1-methylpyrazol-4-yl)methyl]-1-[1-methylpropyl]pyrazolo[4,3-b]pyridin-7-amine]
pIC50 (PDE1A): 7.60
pIC50 (PDE1B): 8.21
pIC50 (PDE1C): 6.99

CCOc1nnccc1-c1cc(NCc2cccc3oc(C)nc23)c2c(n1)c(C)nn2C(C)C [Example 14a, 5-(3-ethoxypyridazin-4-yl)-1-isopropyl-3-methyl-N-[(2-methyl-1,3-benzoxazol-4-yl)methyl]pyrazolo[4,3-b]pyridin-7-amine]
pIC50 (PDE1A): 8.03
pIC50 (PDE1B): 9.68

Cc1nc2c(-c3cc(NCc4cnn(C)c4)c4c(n3)c(C)nn4C(C)C)cccc2o1 [Example 35b, 1-isopropyl-3-methyl-5-(2-methyl-1,3-benzoxazol-4-yl)-N-[(1-methylpyrazol-4-yl)methyl]pyrazolo[4,3-b]pyridin-7-amine]
pIC50 (PDE1A): 7.41
pIC50 (PDE1C): 7.37
